In patent US20200239530A1, “COMPOUNDS AND METHODS OF MODULATING PROTEIN DEGRADATION” (Vividion Therapeutics, Inc., priority 2017, published 2020):

Columns and labels:
Test in all cases: Cysteine liganding, probe competition
Assay type in all cases: binding
[1] = molecular target: T1, VRK3 Inactive serine/threonine-protein kinase VRK3 (Homo sapiens, UniProt Q8IV63)
T1 construct: Cells were resuspended in cold PBS on ice and sonicated with a probe sonicator to achieve lysis; endogenous in cells
T1 sequence (Q8IV63 1-474): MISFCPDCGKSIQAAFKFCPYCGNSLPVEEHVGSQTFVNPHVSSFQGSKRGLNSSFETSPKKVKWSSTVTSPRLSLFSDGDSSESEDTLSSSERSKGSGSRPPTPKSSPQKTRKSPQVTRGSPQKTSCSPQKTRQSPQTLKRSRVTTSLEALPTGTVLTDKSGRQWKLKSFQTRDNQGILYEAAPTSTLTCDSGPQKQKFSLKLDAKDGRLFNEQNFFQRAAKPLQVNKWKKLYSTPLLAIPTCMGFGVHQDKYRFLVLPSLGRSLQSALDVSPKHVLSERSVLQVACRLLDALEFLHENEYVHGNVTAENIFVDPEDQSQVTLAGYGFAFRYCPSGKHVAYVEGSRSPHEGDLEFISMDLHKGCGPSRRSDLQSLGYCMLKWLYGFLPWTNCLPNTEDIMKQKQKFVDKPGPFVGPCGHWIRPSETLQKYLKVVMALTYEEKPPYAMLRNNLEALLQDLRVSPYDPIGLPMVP
How it was run: (§1)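 Read-out is loss of desthiobiotin iodoacetamide labelling at cysteines, measured on streptavidin-enriched tryptic peptides. Compound preincubation ran 1 hr at 25° C in PBS lysate holding 5 mg/ml proteome before the probe was added.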

[2] = molecular target: T2, MAPK8 Mitogen-activated protein kinase 8 (Homo sapiens, UniProt P45983); details: for 100 Max / 100 ave / 500 ave / 500 Max: uniprot P45983; for 500 Max: in % (unit assumed)
T2 construct: Cells were resuspended in cold PBS on ice and sonicated with a probe sonicator to achieve lysis; endogenous in cells
T2 sequence (P45983 whole entry): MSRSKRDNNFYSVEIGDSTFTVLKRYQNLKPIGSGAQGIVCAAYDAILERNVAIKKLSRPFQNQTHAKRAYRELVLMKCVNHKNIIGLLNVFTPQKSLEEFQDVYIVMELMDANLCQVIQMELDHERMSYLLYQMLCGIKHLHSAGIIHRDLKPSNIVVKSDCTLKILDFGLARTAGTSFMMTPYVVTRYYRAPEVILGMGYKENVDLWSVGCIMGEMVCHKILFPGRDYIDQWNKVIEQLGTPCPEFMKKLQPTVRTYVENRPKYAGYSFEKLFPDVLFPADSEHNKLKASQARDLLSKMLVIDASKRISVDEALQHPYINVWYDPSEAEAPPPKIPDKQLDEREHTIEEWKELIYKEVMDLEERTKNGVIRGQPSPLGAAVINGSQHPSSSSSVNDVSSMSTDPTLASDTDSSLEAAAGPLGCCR
How it was run: as §1

[3] = molecular target: T3, ALDH18A1 Delta-1-pyrroline-5-carboxylate synthase (Homo sapiens, UniProt P54886)
T3 construct: Cells were resuspended in cold PBS on ice and sonicated with a probe sonicator to achieve lysis; endogenous in cells
T3 sequence (P54886 1-795): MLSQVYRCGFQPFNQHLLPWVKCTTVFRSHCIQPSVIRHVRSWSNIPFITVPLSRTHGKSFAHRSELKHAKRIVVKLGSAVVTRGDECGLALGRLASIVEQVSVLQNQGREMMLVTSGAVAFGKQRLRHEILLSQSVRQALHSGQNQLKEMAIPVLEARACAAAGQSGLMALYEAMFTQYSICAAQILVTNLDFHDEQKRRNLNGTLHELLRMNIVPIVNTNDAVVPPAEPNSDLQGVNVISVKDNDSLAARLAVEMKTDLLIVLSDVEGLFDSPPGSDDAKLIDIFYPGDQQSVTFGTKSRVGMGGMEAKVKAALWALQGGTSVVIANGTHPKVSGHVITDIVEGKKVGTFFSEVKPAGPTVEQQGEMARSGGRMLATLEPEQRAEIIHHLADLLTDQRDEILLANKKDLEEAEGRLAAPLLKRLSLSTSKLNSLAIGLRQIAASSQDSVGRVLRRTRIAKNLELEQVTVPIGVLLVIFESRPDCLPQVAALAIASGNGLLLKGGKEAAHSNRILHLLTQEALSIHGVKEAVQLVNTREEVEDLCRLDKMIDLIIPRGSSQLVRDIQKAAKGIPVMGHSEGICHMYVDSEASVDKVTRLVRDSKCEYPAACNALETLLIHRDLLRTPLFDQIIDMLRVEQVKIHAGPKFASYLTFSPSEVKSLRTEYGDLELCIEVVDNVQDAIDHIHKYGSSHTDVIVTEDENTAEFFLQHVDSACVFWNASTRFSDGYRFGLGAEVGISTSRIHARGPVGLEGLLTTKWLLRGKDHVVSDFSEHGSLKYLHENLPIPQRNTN
How it was run: as §1

Row | Compound | Liganded ([1]; VRK3 Res# 191, uniprot Q8IV63) | Liganded ([2]; MAPK8 Res# 245, uniprot P45983) | 100 Max [2] | 100 ave [2] | 500 ave [2] | 500 Max [2] | Liganded ([3]; ALDH18A1 Res# 612, uniprot P54886) | 100 Max ([1]; uniprot Q8IV63) | 100 ave ([1]; uniprot Q8IV63) | 500 ave ([1]; uniprot Q8IV63) | 500 Max ([1]; uniprot Q8IV63, in % (unit assumed)) | 100 Max ([3]; uniprot P54886) | 100 ave ([3]; uniprot P54886) | 500 Max ([3]; uniprot P54886) | 500 ave ([3]; uniprot P54886)
1 | COc1ccc2c(c1)CCCN2C(=O)CCl [KB02] | YES | YES | 44.42 | 26.11 | 76.89 | 78.63 | YES |  |  |  |  |  |  |  | 
2 | O=C(CCl)Nc1cc(C(F)(F)F)cc(C(F)(F)F)c1 [KBO3] |  |  | 17.22 | 12.33 | 40.875 | 44.06 |  | −8.38 | −10.03 | 14.41 | 14.41 | 34.21 | 13.91 | 66.31 | 66.23
